How the values were obtained:
Conditions in all cases: incubation time: 72 h
MDA-MB-231 [1] = assay: drug sensitivity score (DSS), CellTiter-Blue viability (DSS (AUC-based score)); higher = stronger viability inhibition; extreme values may be limits of the assay
Method in brief: (§1)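 Into 384-well plates carrying compound in a 5- or 9-concentration series went 20 µl of breast cancer cell suspension, followed by 72 h of incubation. Adding 2.5 µl CellTiter-Blue per well and incubating 2 h at 37 °C preceded fluorescence measurement at 560/590 nm. After normalisation of each plate to 0.1 % DMSO and a positive kill control, dose-response curves were fitted and the area beneath them taken as the drug sensitivity score.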

MDA-MB-468 [2] = assay: as above
Method in brief: as §1

BT-474 [3] = assay: as above
Method in brief: as §1

SK-BR-3 [4] = assay: as above
Method in brief: as §1

HCC1143 = assay: normalised viability (% of control), CellTiter-Blue; higher = more viable cells (about 100 = DMSO control)
Method in brief: (§2)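 The reported quantity is normalised viability at a single listed concentration of the series. Compound in 5 µl medium was pre-dispensed into 384-well plates and 20 µl of breast cancer cell suspension was added for 72 h. A 2 h, 37 °C CellTiter-Blue step (2.5 µl) preceded fluorescence reading at 560/590 nm, and plates were normalised to vehicle (100) and a positive kill control (0).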

HCC1937 = assay: as above
Method in brief: as §2

MDA-MB-231 [5] = assay: as above
Method in brief: as §2

CAL-85-1 = assay: as above
Method in brief: as §2

MFM-223 = assay: as above
Method in brief: as §2

DU-4475 = assay: as above
Method in brief: as §2

HCC1599 = assay: as above
Method in brief: as §2

BT-549 = assay: as above
Method in brief: as §2

MDA-MB-436 = assay: as above
Method in brief: as §2

HDQ-P1 = assay: as above
Method in brief: as §2

CAL-51 = assay: as above
Method in brief: as §2

MDA-MB-468 [6] = assay: as above
Method in brief: as §2

BT-474 [7] = assay: as above
Method in brief: as §2

CAL-148 = assay: as above
Method in brief: as §2

SK-BR-3 [8] = assay: as above
Method in brief: as §2

Hs578T = assay: as above
Method in brief: as §2

CAL-120 = assay: as above
Method in brief: as §2

MDA-MB-453 = assay: as above
Method in brief: as §2

Clc1ccc(Nc2nnc(Cc3ccncc3)c3ccccc23)cc1 [Vatalanib]
Conditions | drug sensitivity score
BT-474 [3] | 0
MDA-MB-231 [1] | 0
MDA-MB-468 [2] | 0
SK-BR-3 [4] | 0

normalised viability [%]
Conditions | 3 nM | 10 nM | 30 nM | 100 nM | 1000 nM | 10000 nM
BT-474 [7] | – | 95.8 | – | – | 96 | 73.1
BT-549 | – | 87.3 | – | – | 88.2 | 85.9
CAL-51 | 104 | – | 98.7 | 104 | – | –
CAL-85-1 | 90 | – | 87.6 | 93.4 | – | –
CAL-120 | – | 82.2 | – | – | 89.7 | 82.6
CAL-148 | 76.1 | – | 83.6 | 82.2 | – | –
DU-4475 | 98.2 | – | 100 | 99 | – | –
HCC1143 | – | 80.5 | – | – | 87.2 | 79.6
HCC1599 | – | 116 | – | – | 115 | 113
HCC1937 | – | 75 | – | – | 95.7 | 91.9
HDQ-P1 | 105 | – | 102 | 108 | – | –
Hs578T | – | 115 | – | – | 104 | 84.7
MDA-MB-231 [5] | – | 90.1 | – | – | 90.8 | 85.1
MDA-MB-436 | – | 106 | – | – | 97.5 | 85.2
MDA-MB-453 | 107 | – | 112 | 112 | – | –
MDA-MB-468 [6] | – | 98.6 | – | – | 112 | 78.2
MFM-223 | – | 99.5 | – | – | 99.8 | 111
SK-BR-3 [8] | – | 95.2 | – | – | 101 | 86.9

C[C@@H](Oc1cc(-c2cnn(C3CCNCC3)c2)cnc1N)c1c(Cl)ccc(F)c1Cl [Crizotinib]
Conditions | drug sensitivity score
BT-474 [3] | 5.02
MDA-MB-231 [1] | 9.17
MDA-MB-468 [2] | 4.88
SK-BR-3 [4] | 4.22

normalised viability [%]
Conditions | 3 nM | 10 nM | 30 nM | 100 nM | 1000 nM | 10000 nM
BT-474 [7] | – | 94.2 | – | – | 93.3 | 10.3
BT-549 | – | 107 | – | – | 107 | 30.1
CAL-51 | 107 | – | 107 | 108 | – | –
CAL-85-1 | 91.7 | – | 91 | 94 | – | –
CAL-120 | – | 90.3 | – | – | 83.4 | 9.87
CAL-148 | 91.8 | – | 94.1 | 100 | – | –
DU-4475 | 94.9 | – | 98.8 | 96.2 | – | –
HCC1143 | – | 87.8 | – | – | 96.1 | 42.5
HCC1599 | – | 105 | – | – | 99.1 | 60.8
HCC1937 | – | 38.1 | – | – | 89.2 | 7.72
HDQ-P1 | 88.4 | – | 91.3 | 88.6 | – | –
Hs578T | – | 102 | – | – | 103 | 34
MDA-MB-231 [5] | – | 89.8 | – | – | 63.5 | 0.88
MDA-MB-436 | – | 71.3 | – | – | 17.1 | 8.24
MDA-MB-453 | 95.2 | – | 81.3 | 87.6 | – | –
MDA-MB-468 [6] | – | 107 | – | – | 95.3 | 8.61
MFM-223 | – | 75.5 | – | – | 73 | 34.1
SK-BR-3 [8] | – | 97.2 | – | – | 110 | 5.81

CNCc1ccc(-c2[nH]c3cc(F)cc4c3c2CCNC4=O)cc1 [Rucaparib]
Conditions | drug sensitivity score
BT-474 [3] | 0
MDA-MB-231 [1] | 2.45
MDA-MB-468 [2] | 0
SK-BR-3 [4] | 0

normalised viability [%]
Conditions | 3 nM | 10 nM | 30 nM | 100 nM | 1000 nM | 10000 nM
BT-474 [7] | – | 108 | – | – | 111 | 102
BT-549 | – | 100 | – | – | 107 | 93.8
CAL-51 | 119 | – | 114 | 110 | – | –
CAL-85-1 | 93.2 | – | 84.2 | 94.6 | – | –
CAL-120 | – | 77.4 | – | – | 81 | 76.8
CAL-148 | 90.5 | – | 87.6 | 92.6 | – | –
DU-4475 | 84 | – | 96.6 | 83 | – | –
HCC1143 | – | 84.3 | – | – | 94.2 | 89.9
HCC1599 | – | 95.8 | – | – | 128 | 96.2
HCC1937 | – | 55.9 | – | – | 72.2 | 52.7
HDQ-P1 | 87 | – | 88 | 88.2 | – | –
Hs578T | – | 112 | – | – | 107 | 94.4
MDA-MB-231 [5] | – | 99.2 | – | – | 84.3 | 75.4
MDA-MB-436 | – | 103 | – | – | 62.6 | 98.2
MDA-MB-453 | 111 | – | 89.3 | 110 | – | –
MDA-MB-468 [6] | – | 103 | – | – | 105 | 77.5
MFM-223 | – | 95.4 | – | – | 99.2 | 61.5
SK-BR-3 [8] | – | 97.5 | – | – | 98.2 | 78.5

CC(=O)Nc1ccc(C(=O)Nc2ccccc2N)cc1 [CI-994]
Conditions | drug sensitivity score
BT-474 [3] | 0
MDA-MB-231 [1] | 0
MDA-MB-468 [2] | 0
SK-BR-3 [4] | 0

normalised viability [%]
Conditions | 0.3 nM | 1 nM | 3 nM | 10 nM | 100 nM | 1000 nM
BT-474 [7] | – | 104 | – | – | 117 | 97.4
BT-549 | – | 116 | – | – | 97 | 112
CAL-51 | 94.6 | – | 94.6 | 96.7 | – | –
CAL-85-1 | 104 | – | 104 | 101 | – | –
CAL-120 | – | 99.9 | – | – | 106 | 88.9
CAL-148 | 104 | – | 93.9 | 101 | – | –
DU-4475 | 86 | – | 81 | 107 | – | –
HCC1143 | – | 113 | – | – | 118 | 101
HCC1599 | – | 104 | – | – | 99.8 | 84.8
HCC1937 | – | 86.9 | – | – | 101 | 89.9
HDQ-P1 | 113 | – | 125 | 108 | – | –
Hs578T | – | 119 | – | – | 115 | 92.5
MDA-MB-231 [5] | – | 104 | – | – | 101 | 115
MDA-MB-436 | – | 98.7 | – | – | 97.2 | 94.8
MDA-MB-453 | 100 | – | 100 | 105 | – | –
MDA-MB-468 [6] | – | 99.6 | – | – | 115 | 100
MFM-223 | – | 107 | – | – | 109 | 102
SK-BR-3 [8] | – | 103 | – | – | 97.8 | 99.4
